Measurements from patent publication US20080132505A1 (Glaxo Group Limited, priority 2004, published 2008).

Target: human cannabinoid CB2 receptor (Homo sapiens, UniProt P34972)
Experiment: Cannabinoid CB2 receptor agonist activity (yeast reporter assay, FDGlu fluorescence)
Format: cell-based
Settings: for EC50: EC50 value at the cloned human cannabinoid CB2 receptor; for Emax: read-out: efficacy value (Emax relative to HU210) at the cloned human cannabinoid CB2 receptor
Description: Determination of Cannabinoid CB2 Receptor Agonist Activity
The cannabinoid CB2 receptor agonist activity of the compounds of formula (I)-(IV) was determined in accordance with the following experimental method.
Yeast (Saccharomyces cerevisiae) cells expressing the human cannabinoid CB2 receptor were generated by integration of an expression cassette into the ura3 chromosomal locus of yeast strain MMY23. This cassette consisted of DNA sequence encoding the human CB2 receptor flanked by the yeast GPD promoter to the 5′ end of CB2 and a yeast transcriptional terminator sequence to the 3′ end of CB2. MMY23 expresses a yeast/mammalian chimeric G-protein alpha subunit in which the C-terminal 5 amino acids of Gpa1 are replaced with the C-terminal 5 amino acids of human Gαi3 (as described in Brown et al. (2000), Yeast 16:11-22). Cells were grown at 30° C. in liquid Synthetic Complete (SC) yeast media (Guthrie and Fink (1991), Methods in Enzymology, Vol. 194) lacking uracil, tryptophan, adenine and leucine to late logarithmic phase (approximately 6 OD600/ml).
Agonists were prepared as 10 mM stocks in DMSO. […] Agonist solutions in DMSO (1% final assay volume) were transferred into black, clear bottom, microtitre plates from NUNC (96- or 384-well). Cells were suspended at a density of 0.2 OD600/ml in SC media lacking histidine, uracil, tryptophan, adenine and leucine and supplemented with 10 mM 3-aminotriazole, 0.1M sodium phosphate pH 7.0, and […] fluorescein di-β-D-glucopyranoside (FDGlu). This mixture (50 ul per well for 384-well plates, 200 ul per well for 96-well plates) was added to agonist in the assay plates (Multidrop 384, Labsystems). After incubation at 30° C. for 24 hours, fluorescence resulting from degradation of FDGlu to fluorescein due to exoglucanase, an endogenous yeast enzyme produced during agonist-stimulated cell growth, was determined using a Spectrofluor microtitre plate reader (Tecan; excitation wavelength: 485 nm; emission wavelength: 535 nm). Fluorescence was plotted against compound concentration and iteratively curve fitted using a four parameter fit to generate a concentration effect value. Efficacy (Emax) was calculated from the equation
where Max[compound X] and Min[compound X] are the fitted maximum and minimum respectively from the concentration effect curve for compound X, and Max[HU210] and Min[HU210] are the fitted maximum and minimum respectively from the concentration effect curve for (6aR,10aR)-3-(1,1′-Dimethylheptyl)-6a,7,10,10a-tetrahydro-1-hydroxy-6,6-dimethyl-6H-dibenzo[b,d]pyran-9-methanol (HU210; available from Tocris). Equieffective molar ratio (EMR) values were calculated from the equation
Where EC50 [compound X] is the EC50 of compound X and EC50 [HU210] is the EC50 of HU210.

Chain of human cannabinoid CB2 receptor (P34972 whole entry): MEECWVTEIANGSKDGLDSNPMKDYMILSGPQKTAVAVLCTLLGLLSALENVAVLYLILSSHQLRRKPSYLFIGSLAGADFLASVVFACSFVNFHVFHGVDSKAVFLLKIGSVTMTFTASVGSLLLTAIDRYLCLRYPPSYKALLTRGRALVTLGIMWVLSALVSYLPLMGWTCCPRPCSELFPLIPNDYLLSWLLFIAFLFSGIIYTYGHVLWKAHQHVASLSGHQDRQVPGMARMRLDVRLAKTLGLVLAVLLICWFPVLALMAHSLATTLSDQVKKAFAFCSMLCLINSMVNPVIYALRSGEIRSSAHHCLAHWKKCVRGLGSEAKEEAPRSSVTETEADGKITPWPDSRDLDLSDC

Structure (SMILES) | activity in the CB2 assay described herein | EC50 | Emax
O=C(NCc1ccccc1Br)c1cnc(Nc2cccc(Cl)c2)nc1C(F)(F)F [2-(3-Chloro-phenylamino)-4-trifluoromethyl-pyrimidine-5-carboxylic acid 2-bromo-benzylamide] | inactive | – | –
COc1ccccc1CNC(=O)c1cnc(Nc2cccc(Cl)c2)nc1C(F)(F)F [2-(3-Chloro-phenylamino)-4-trifluoromethyl-pyrimidine-5-carboxylic acid 2-methoxy-benzylamide] | inactive | – | –
CN(Cc1ccccc1)C(=O)c1cnc(Nc2ccc(C(C)(C)C)cc2)nc1C(F)(F)F [2-(4-tert-butyl-phenylamino)-4-trifluoromethyl-pyrimidine-5-carboxylic acid benzyl-methyl-amide] | inactive | – | –
CC(C)(C)c1ccc(Nc2ncc(C(=O)NCc3ccccc3)c(C(F)(F)F)n2)cc1 [2-(4-tert-butyl-phenylamino)-4-trifluoromethyl-pyrimidine-5-carboxylic acid benzylamide] | inactive | – | –
O=C(c1cnc(Nc2cccc(Cl)c2)nc1C(F)(F)F)N1CCCCC1 [Example 1, 1-[2-(3-Chlorophenylamino)-4-trifluoromethylpyrimidin-5-yl]-1-piperidin-1-ylmethanone] | – | 20 to 300 nM | > 50%
O=C(NCC1CCCC1)c1cnc(Nc2cccc(Cl)c2)nc1C(F)(F)F [Example 2, 2-(3-Chlorophenylamino)-4-trifluoromethylpyrimidine-5-carboxylic acid cyclopentylmethyl-amide] | – | 20 to 300 nM | > 50%
O=C(c1cnc(Nc2cccc(Cl)c2)nc1C(F)(F)F)N1CCOCC1 [Example 3, 1-[2-(3-Chlorophenylamino)-4-trifluoromethylpyrimidin-5-yl]-1-morpholin-4-yl-methanone] | – | 20 to 300 nM | > 50%
O=C(NCC1CCCCC1)c1cnc(Nc2cccc(Cl)c2)nc1C(F)(F)F [Example 4, 2-(3-Chlorophenylamino)-4-trifluoromethylpyrimidine-5-carboxylic acid cyclohexylmethylamide] | – | 20 to 300 nM | > 50%
O=C(NCC1CCCCC1)c1cnc(Nc2ccccc2)nc1C(F)(F)F [Example 5] | – | – | > 50%
O=C(c1cnc(Nc2cccc(Cl)c2Cl)nc1C(F)(F)F)N1CCOCC1 [Example 6, 1-[2-(2,3-Dichlorophenylamino)-4-trifluoromethylpyrimidin-5-yl]-1-morpholin-4-yl-methanone] | – | 20 to 300 nM | > 50%
O=C(c1cnc(Nc2ccc(Cl)cc2Cl)nc1C(F)(F)F)N1CCOCC1 [Example 7, 1-[2-(2,4-Dichlorophenylamino)-4-trifluoromethylpyrimidin-5-yl]-1-morpholin-4-yl-methanone] | – | 20 to 300 nM | > 50%
O=C(c1cnc(Nc2cc(Cl)ccc2Cl)nc1C(F)(F)F)N1CCOCC1 [Example 9, 1-[2-(2,5-Dichlorophenylamino)-4-trifluoromethylpyrimidin-5-yl]-1-morpholin-4-yl-methanone] | – | 20 to 300 nM | > 50%
O=C(c1cnc(Nc2cccc(F)c2)nc1C(F)(F)F)N1CCOCC1 [Example 10, 1-[2-(3-Fluorophenylamino)-4-trifluoromethylpyrimidin-5-yl]-1-morpholin-4-yl-methanone] | – | 20 to 300 nM | > 50%
O=C(c1cnc(Nc2cccc(Br)c2)nc1C(F)(F)F)N1CCOCC1 [Example 11, 1-[2-(3-Bromophenylamino)-4-trifluoromethylpyrimidin-5-yl]-1-morpholin-4-yl-methanone] | – | 20 to 300 nM | > 50%
O=C(c1cnc(Nc2cccc(Br)c2)nc1C(F)(F)F)N1CCCCC1 [Example 12] | – | – | > 50%
O=C(c1cnc(Nc2cc(Cl)cc(Cl)c2)nc1C(F)(F)F)N1CCOCC1 [Example 13, 1-[2-(3,5-Dichlorophenylamino)-4-trifluoromethylpyrimidin-5-yl]-1-morpholin-4-yl-methanone] | – | 20 to 300 nM | > 50%
O=C(NC1CCCC1)c1cnc(Nc2cccc(Cl)c2)nc1C(F)(F)F [Example 14, 2-(3-Chlorophenylamino)-4-trifluoromethylpyrimidine-5-carboxylic acid cyclopentylamide] | – | 20 to 300 nM | > 50%
O=C(NCC1CCCCC1)c1cnc(Nc2cccc(Cl)c2Cl)nc1C(F)(F)F [Example 15, 2-(2,3-Dichlorophenylamino)-4-trifluoromethylpyrimidine-5-carboxylic acid cyclohexylmethyl-amide] | – | 20 to 300 nM | > 50%
O=C(NCC1CCCCC1)c1cnc(Nc2ccc(Cl)cc2Cl)nc1C(F)(F)F [Example 16, 2-(2,4-Dichlorophenylamino)-4-trifluoromethylpyrimidine-5-carboxylic acid cyclohexylmethyl-amide] | – | 20 to 300 nM | > 50%
O=C(NCC1CCCCC1)c1cnc(Nc2ccc(Cl)c(Cl)c2)nc1C(F)(F)F [Example 17, 2-(3,4-Dichlorophenylamino)-4-trifluoromethylpyrimidine-5-carboxylic acid cyclohexylmethyl-amide] | – | 20 to 300 nM | > 50%
O=C(NCC1CCCCC1)c1cnc(Nc2cc(Cl)cc(Cl)c2)nc1C(F)(F)F [Example 18, 2-(3,5-Dichlorophenylamino)-4-trifluoromethylprimidine-5-carboxylic acid cyclohexylmethyl-amide] | – | 20 to 300 nM | > 50%
O=C(NCC1CCCCC1)c1cnc(Nc2cccc(Br)c2)nc1C(F)(F)F [Example 20, 2-(3-Bromophenylamino)-4-trifluoromethylpyrimidine-5-carboxylic acid cyclohexylmethyl-amide] | – | 20 to 300 nM | > 50%
O=C(NCC1CCCCC1)c1cnc(Nc2c(Cl)cccc2Cl)nc1C(F)(F)F [Example 21, 2-(2,6-Dichlorophenylamino)-4-trifluoromethylpyrimidine-5-carboxylic acid cyclohexylmethyl-amide] | – | 20 to 300 nM | > 50%
O=C(NCC1CCOCC1)c1cnc(Nc2cccc(Cl)c2)nc1C(F)(F)F [Example 22, 2-(3-Chlorophenylamino)-4-trifluoromethylpyrimidine-5-carboxylic acid (tetrahydro-pyran-4-ylmethyl)-amide] | – | 20 to 300 nM | > 50%
O=C(NC1CCC1)c1cnc(Nc2cccc(Cl)c2)nc1C(F)(F)F [Example 23, 2-(3-Chlorophenylamino)-4-trifluoromethylpyrimidine-5-carboxylic acid cyclobutyl-amide] | – | 20 to 300 nM | > 50%
O=C(c1cnc(Nc2ccccc2)nc1C(F)(F)F)N1CCCCC1 [Example 24, 1-(2-Phenylamino-4-trifluoromethyl-pyrimidin-5-yl)-1-piperidin-1-yl-methanone] | – | 300 to 1000 nM | > 50%
O=C(c1cnc(Nc2ccccc2)nc1C(F)(F)F)N1CCOCC1 [Example 25, 1-Morpholin-4-yl-1-(2-phenylamino-4-trifluoromethyl-pyrimidin-5-yl)-methanone] | – | 300 to 1000 nM | > 50%
N#CCNC(=O)c1cnc(Nc2cccc(Cl)c2)nc1C(F)(F)F [Example 26, 2-(3-Chloro-phenylamino)-4-trifluoromethyl-pyrimidine-5-carboxylic acid cyanomethyl-amide] | – | 300 to 1000 nM | > 50%
